{
  "source": "patent US6214345A",
  "about": "“Lysosomal enzyme-cleavable antitumor drug conjugates” (Bristol-Myers Squibb Co., priority 1993, dated 2001)",
  "key": {"[1]": {"system": "HCT116 colon line", "assay": "In vitro cytotoxicity assay (3H-thymidine uptake), HCT116", "format": "cell-based, human", "settings": "antigen-negative HCT116, 2 hours exposure", "experimental": "All dilutions were performed in quadruplicate."}, "[2]": {"system": "L2987 human lung carcinoma xenografts", "assay": "Antitumor activity against established L2987 human tumor xenografts (Test VI)", "format": "in vivo, mice", "experimental": "The BR96-PEP-DOX conjugate (MR=4.41) was evaluated in vivo (Table 1) against L2987 human lung carcinoma xenografts. Therapy was initiated 14 days after tumor implant when the tumors were approximately 75 mm 3 in size."}, "[3]": {"biological_target": "T1, Bovin spleen cathepsin B (Bos taurus, UniProt P07688)", "T1 construct": "purchased Sigma; host or cells: bovine spleen", "assay": "Cathepsin B unmasking of Z-Phe-Lys-PABC-DOX (Test III)", "format": "biochemical, bovine", "settings": "pH 5.0 acetate buffer, about 37° C., [Substrate]=40 μM, [Cathepsin B]=ca. 41 nM"}, "[4]": {"assay": "Human plasma stability of Z-Phe-Lys-PABC-DOX (Test IV)", "format": "in vitro ADME", "settings": "freshly drawn human plasma", "experimental": "Aliquots (50 μl) were periodically removed and diluted with cold methanol (100 μl). The samples were centrifuged and the resulting liquid injected into the HPLC (conditions as above). Enough DOX was added to a separate sample of plasma to give a theoretical release of 1% from the substrate. This was successfully detected using the same methods."}, "[5]": {"system": "A2780 ovarian line", "settings": "A2780, 2 hours exposure, 3H-thymidine uptake", "excerpt": "(§1) L2987 is a lung adenocarcinoma line obtained from I. Hellstrom (Bristol-Myers Squibb, Seattle, Wash.). The HCT116 colorectal tumor line was obtained from M. Brattain (Baylor Inst., Tex.). A2780 is an ovarian carcinoma line obtained from K. Scanlon (National Cancer Institute).\n(§2) Monolayer cultures of human carcinoma cells were harvested using trypsin-EDTA (GIBCO, Grand Island, N.Y.), and the cells counted and resuspended to 1×10^5 /ml in RPMI-1640 containing 10% heat inactivated fetal calf serum (RPMI-10% FCS). Cells (0.1 ml/well) were added to each well of 96 well microtiter plates and incubated overnight at about 37° C. in a humidified atmosphere of 5% CO2. Media was removed from the plates and serial dilutions of DOX or MAb-DOX conjugates added to the walls. All dilutions were performed in quadruplicate. Cells were exposed to DOX or MAb-DOX conjugates for about 2 hours at about 37° C. in a humidified atmosphere of 5% CO2. Plates were then centrifuged (200×g, 5 min.), the drug or conjugate removed, and the cells washed 3× with RPMI-10% FCS. The cells were cultured in RPMI-10% FCS (37° C., 5% CO2) for an additional 48 hours. At this time the cells were pulsed for about 2 hours with 1.0 uCi/well of ^3 H-thymidine (New England Nuclear, Boston, Mass.)."}, "[6]": {"system": "L2987 lung line", "settings": "L2987, 2 hours exposure, 3H-thymidine uptake", "excerpt": "as §1, §2"}, "[7]": {"biological_target": "cathepsin B (Bos taurus, UniProt P07688)", "procedure": "Bovin spleen cathepsin B (Sigma, EC 3.4.22.1, MW ca. 40,000) (10 units) was dissolved in 1 ml pH 5.0 acetate buffer (25 mM acetate+1 mM EDTA), giving a solution roughly 13.7 M. 6 μl of the enzyme solution was incubated with 12 μl of an activating solution (30 mM dithiothreitol and 15 mM EDTA) for about 15 minutes at room temperature. To this was added 2 ml of pH 5.0 acetate buffer (25 mM acetate with 1 mM EDTA) which had been incubated at about 37° C., followed by 8 μl of a 10 mM solution of Z-Phe-Lys-PABC-DOX in methanol ([Substrate]=40 μM, [Cathepsin B]=ca. 41 nM). The mixture was incubated at about 37° C., and aliquots were periodically removed and injected into the HPLC (C-18 column; 80:20 methanol/pH 2.8 triethylammonium formate (50 mM) buffer; 1 ml/min.; 495 mn detection wavelength)."}, "[8]": {"settings": "0.31 mg/kg DOX, 20 mg/kg BR96 per injection"}, "[9]": {"settings": "0.63 mg/kg DOX, 39 mg/kg BR96 per injection"}, "[10]": {"settings": "1.25 mg/kg DOX, 78 mg/kg BR96 per injection"}, "[11]": {"settings": "2.5 mg/kg DOX, 156 mg/kg BR96 per injection"}, "[12]": {"settings": "5 mg/kg DOX, 312 mg/kg BR96 per injection"}, "[13]": {"settings": "10 mg/kg DOX, 625 mg/kg BR96 per injection"}, "[14]": {"settings": "20 mg/kg DOX, 1250 mg/kg BR96 per injection"}},
  "note": "Counter-ions that a name gives are not always drawn.",
  "data": [
    {"molecule": "COc1cccc2c1C(=O)c1c(O)c3c(c(O)c1C2=O)C[C@@](O)(C(=O)CO)C[C@@H]3O[C@H]1C[C@H](N)[C@H](O)[C@H](C)O1", "note": "[DOX, Doxorubicin, reference compound]", "values": [
      {"measurement": "in vitro activity", "setting": "[1]", "result": "sensitive"},
      {"measurement": "% Tumor Regressions Complete", "setting": "[2]; DOX 6 mg/kg/injection", "result": 0, "unit": "%"},
      {"measurement": "% Tumor Regressions Partial", "setting": "[2]; DOX 6 mg/kg/injection", "result": 0, "unit": "%"},
      {"measurement": "Log Cell Kill", "setting": "[2]; DOX 6 mg/kg/injection", "result": 1.5},
      {"measurement": "% Tumor Regressions Complete", "setting": "[2]; DOX 8 mg/kg/injection", "result": 10, "unit": "%"},
      {"measurement": "% Tumor Regressions Partial", "setting": "[2]; DOX 8 mg/kg/injection", "result": 0, "unit": "%"},
      {"measurement": "Log Cell Kill", "setting": "[2]; DOX 8 mg/kg/injection", "result": 2.4}
    ]},
    {"molecule": "COc1cccc2c1C(=O)c1c(O)c3c(c(O)c1C2=O)C[C@@](O)(C(=O)CO)C[C@@H]3O[C@H]1C[C@H](NC(=O)OCc2ccc(NC(=O)[C@H](CCCCN)NC(=O)[C@H](Cc3ccccc3)NC(=O)OCc3ccccc3)cc2)[C@H](O)[C@H](C)O1", "note": "[Z-Phe-Lys-PABC-DOX, Z-Phe-Lys-PABC-DOX-HCl]", "values": [
      {"measurement": "half-life of release of free DOX", "setting": "[3]", "result": "7 to 9", "unit": "min"},
      {"measurement": "free DOX detected in plasma", "setting": "[4]; over 7 hours", "result": "No free DOX was detected"},
      {"measurement": "half-life", "setting": "[4]; no release over 7 hours", "result": "> 350", "unit": "h"}
    ]},
    {"molecule": "BR96-succinimidocaproyl-phenylalanine-lysine-p-aminovenzyl-carbamoyloxy-doxorubicin [BR96-DOX]", "values": [
      {"measurement": "in vitro potency, fold less potent than unconjugated DOX", "setting": "[5]", "result": "approximately 50 fold"},
      {"measurement": "in vitro potency compared with unconjugated DOX", "setting": "[6]", "result": "equivalent to that of unconjugated DOX"},
      {"measurement": "in vitro activity", "setting": "[1]", "result": "not active"},
      {"measurement": "% Tumor Regressions Complete", "setting": "[2]; [8]", "result": 0, "unit": "%"},
      {"measurement": "% Tumor Regressions Partial", "setting": "[2]; [8]", "result": 0, "unit": "%"},
      {"measurement": "Log Cell Kill", "setting": "[2]; [8]", "result": 0.2},
      {"measurement": "% Tumor Regressions Complete", "setting": "[2]; [9]", "result": 0, "unit": "%"},
      {"measurement": "% Tumor Regressions Partial", "setting": "[2]; [9]", "result": 0, "unit": "%"},
      {"measurement": "Log Cell Kill", "setting": "[2]; [9]", "result": 0.3},
      {"measurement": "% Tumor Regressions Complete", "setting": "[2]; [10]", "result": 10, "unit": "%"},
      {"measurement": "% Tumor Regressions Partial", "setting": "[2]; [10]", "result": 10, "unit": "%"},
      {"measurement": "Log Cell Kill", "setting": "[2]; [10]", "result": 2.4},
      {"measurement": "% Tumor Regressions Complete", "setting": "[2]; [11]", "result": 90, "unit": "%"},
      {"measurement": "% Tumor Regressions Partial", "setting": "[2]; [11]", "result": 10, "unit": "%"},
      {"measurement": "Log Cell Kill", "setting": "[2]; [11]", "result": "> 7"},
      {"measurement": "% Tumor Regressions Complete", "setting": "[2]; [12]", "result": 100, "unit": "%"},
      {"measurement": "% Tumor Regressions Partial", "setting": "[2]; [12]", "result": 0, "unit": "%"},
      {"measurement": "Log Cell Kill", "setting": "[2]; [12]", "result": "> 7"},
      {"measurement": "% Tumor Regressions Complete", "setting": "[2]; [13]", "result": 89, "unit": "%"},
      {"measurement": "% Tumor Regressions Partial", "setting": "[2]; [13]", "result": 11, "unit": "%"},
      {"measurement": "Log Cell Kill", "setting": "[2]; [13]", "result": "> 7"},
      {"measurement": "% Tumor Regressions Complete", "setting": "[2]; [14]", "result": 100, "unit": "%"},
      {"measurement": "% Tumor Regressions Partial", "setting": "[2]; [14]", "result": 0, "unit": "%"},
      {"measurement": "Log Cell Kill", "setting": "[2]; [14]", "result": "> 7"},
      {"measurement": "activity and tolerability in vivo", "setting": "[2]; doses of 1.25-20 mg/kg equivalent DOX/injection", "result": "active and tolerated"},
      {"measurement": "activity compared with optimized DOX", "setting": "[2]; doses of ≥2.5 mg/kg equivalent DOX/injection", "result": "significantly more active than optimized DOX"},
      {"measurement": "half-life of release of free DOX", "setting": "[7]; cathepsin B, pH 5.3, about 37° C., HPLC", "result": "about 3 hours"},
      {"measurement": "t1/2 of DOX release by cathepsin B", "setting": "[7]; pH 5.3 (37° C.)", "result": 3.0, "unit": "h"}
    ]}
  ]
}
